Assay results from patent publication US6844353B2, “Fungicidal properties of sampangine and its analogs to agriculturally important fungal plant pathogens” (The United States of America as represented by the …, priority 2003, dated 2005).
Like-named read-outs stand apart in the source and are kept apart here.

Columns and labels:
F. oxysporum = assay: 96-well microtiter plate assay, fungal growth inhibition; format: cell-based, Fusarium oxysporum; settings: Fusarium oxysporum, F. oxysporum, read-out: Percent inhibition−Percent Stimulation±SEM
Summary of the method: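 Conidia (1.0×10^6 conidia/mL suspension) were challenged in broth with compounds at 0.3, 3.0 and 30.0 μM in duplicate, at 24±1° C with a 12 h photoperiod. Growth was read as absorbance at 620 nm at 46 and 72 h (120 h for Phomopsis species), with mean absorbance used to judge inhibition.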

C. gloeosporioides = assay: as above; format: cell-based, Colletotrichum gloeosporioides; settings: Colletotrichum gloeosporioides, C. gloeosporioides, read-out: Percent inhibition−Percent Stimulation±SEM
C. fragariae = assay: as above; format: cell-based, Colletotrichum fragariae; settings: Colletotrichum fragariae, C. fragariae, read-out: Percent inhibition−Percent Stimulation±SEM
C. acutatum = assay: as above; format: cell-based, Colletotrichum acutatum; settings: Colletotrichum acutatum, C. acutatum, read-out: Percent inhibition−Percent Stimulation±SEM
B. cinerea = assay: as above; format: cell-based, Botrytis cinerea; settings: Botrytis cinerea, B. cinerea, read-out: Percent inhibition−Percent Stimulation±SEM
[1] = tested on: C. fragariae isolate CF-75; assay: Detached strawberry leaf assay; format: in vivo, Colletotrichum fragariae; settings: detached strawberry leaves (cultivar Chandler), five days after application
From the text: Strawberry plants of the cultivar Chandler were maintained in a warm greenhouse under conditions suitable for optimum vegetative growth. The youngest fully expanded leaf with the entire petiole from each plant was collected. The petiole of each leaf was inserted into a small test tube (10×4 mm) and filled with sterile distilled water. The left leaflet of each leaf was inoculated with C. fragariae isolate CF-75 (1.5×10^6 conidia/ml) using a hand pump sprayer. The inoculated leaves were placed in a dew chamber and incubated overnight at 30° C. and 100% relative humidity, removed from the dew chamber and allowed to dry. The test compound was applied using a chromatography sprayer until the upper surface of each leaflet was coated. After allowing the leaves to air dry for 2 hours, the right leaflet of each leaf was inoculated with C. fragariae isolate CF-75. The leaves were incubated in the dew chamber at 30° C. and 100% relative humidity for 48 hours. The leaves were then removed from the dew chamber and held in a moist chamber for 3 days (total of five days since test compounds were applied). The number of lesions on each leaflet were then counted.

In the case of `O=C1c2ccccc2-c2nccc3ccnc1c23` [Sampangine], the inhibition at 0.3 µM (F. oxysporum; 48 hrs) is reported as 14.7 ± 4.4%, the inhibition at 0.3 µM (F. oxysporum; 72 hrs) is reported as 4.9 ± 2.3% and the inhibition at 3 µM (F. oxysporum; 48 hrs) is reported as 86.6 ± 2.8%. For the same molecule, the inhibition at 3 µM (F. oxysporum; 72 hrs) was 42.9 ± 3.1%, the inhibition at 30 µM (F. oxysporum; 48 hrs) was 100 ± 0.4% and the inhibition at 30 µM (F. oxysporum; 72 hrs) was 100 ± 0.4%. It also gave an inhibition at 0.3 µM (C. gloeosporioides; 48 hrs) of 63.8 ± 8.6%, an inhibition at 0.3 µM (C. gloeosporioides; 72 hrs) of 32.9 ± 8.3% and an inhibition at 3 µM (C. gloeosporioides; 48 hrs) of 98.3 ± 0.6%. It also gave an inhibition at 3 µM (C. gloeosporioides; 72 hrs) of 98.8 ± 0.4%, an inhibition at 30 µM (C. gloeosporioides; 48 hrs) of 99.2 ± 0.8% and an inhibition at 30 µM (C. gloeosporioides; 72 hrs) of 99.7 ± 0.4%. For the same molecule, the inhibition at 0.3 µM (C. fragariae; 48 hrs) was 55.7 ± 4.5%, the inhibition at 0.3 µM (C. fragariae; 72 hrs) was 32.6 ± 5% and the inhibition at 3 µM (C. fragariae; 48 hrs) was 96.9 ± 0.8%. For the same molecule, the inhibition at 3 µM (C. fragariae; 72 hrs) was 96.8 ± 0.4%, the inhibition at 30 µM (C. fragariae; 48 hrs) was 99.6 ± 0.9% and the inhibition at 30 µM (C. fragariae; 72 hrs) was 100 ± 0.4%. It also gave an inhibition at 0.3 µM (C. acutatum; 48 hrs) of 13.6 ± 5.8%, an inhibition at 0.3 µM (C. acutatum; 72 hrs) of 6 ± 5.1% and an inhibition at 3 µM (C. acutatum; 48 hrs) of 96.8 ± 0.5%. It also gave an inhibition at 3 µM (C. acutatum; 72 hrs) of -6.2 ± 3.8%, an inhibition at 30 µM (C. acutatum; 48 hrs) of 100 ± 0.6% and an inhibition at 30 µM (C. acutatum; 72 hrs) of 100 ± 0.2%. It also gave an inhibition at 0.3 µM (B. cinerea; 48 hrs) of 27.2 ± 18.6%, an inhibition at 0.3 µM (B. cinerea; 72 hrs) of 37 ± 21.8% and an inhibition at 3 µM (B. cinerea; 48 hrs) of 29.7 ± 24.8%. For the same molecule, the inhibition at 3 µM (B. cinerea; 72 hrs) was 40.1 ± 20.6%, the inhibition at 30 µM (B. cinerea; 48 hrs) was 36.9 ± 26.7% and the inhibition at 30 µM (B. cinerea; 72 hrs) was 47.5 ± 27.1%. The “Disease severity scores (# disease lesions)” value (from here on “Disease severity scores”) ([1]; Concentration 625 (unit not given)) was 8.31, the “Disease severity scores” value ([1]; Concentration 1250 (unit not given)) was 1.26 and the “Disease severity scores” value ([1]; Concentration 2500 (unit not given)) was 0.80.
